Source: publication PMC11051159, “Green Synthesis of Gold Nanoparticles Using Liquiritin and Other Phenolics from Glycyrrhiza glabra and Their Anti-Inflammatory Activity” (Journal of Functional Biomaterials, 2024)
≈ marks a conversion by molar mass, not a printed value. Like-named read-outs stand apart in the source and are kept apart here.

Assays:
RAW 264.7 cells = test: Cell viability assay (WST-1); format: cell-based, murine; conditions: for concentration at which cell viability was significantly decreased (cytotoxic): range tested 0–100 μg/mL; for effect on cell viability (in words): 0–100 μg/mL; for IC50: Mus musculus
Method: (§1) The RAW 264.7 cells were seeded at 1 × 10^6 cells/mL in 96-well tissue culture-treated plates for cell viability and nitric oxide assays. The seeded cells were incubated under standard tissue culture conditions at 37 °C in a humidified atmosphere of 5% CO2 for approximately 24 h until the cells reached 70–80% confluence. The cells were subsequently exposed to the relevant AuNP conjugates, total extract, or compounds. After that, the cells were either left unstimulated or stimulated with 1 μg/mL lipopolysaccharide (LPS, from E. coli O111:B4, Sigma-Aldrich) to yield a final concentration range of 0–100 μg/mL of the appropriate treatment. The cells were then incubated overnight under standard tissue culture conditions.
(§2) The supernatants were removed after incubation, and cells were washed with phosphate-buffered saline (PBS, Lonza). Cell viability was assessed by adding 50 μL of a 1/10 dilution of 2-(4-iodophenyl)-3-(4-nitrophenyl)-5-(2,4-disulfophenyl)-2H-tetrazolium (WST-1, Roche, Basel, Switzerland) in complete DMEM medium to each well. Metabolically active cells convert the WST-1 reagent to a formazan that can be measured spectrophotometrically. Formazan formation was determined by reading the plate at 450 nm immediately after adding WST-1 and again after an incubation period of 1 h at 37 °C. The increase in absorbance is proportional to formazan formation and directly proportional to cell viability. The difference between the zero-absorbance reading and 1 hr incubation was used to calculate the percentage of cell viability. Cell viability was calculated as a percentage of the control using the below formula:(1) Cell viability as a % of Control=T1−T0/U1−U0×100 where T1 is the absorbance of the treated sample after 1 h, T0 is the absorbance of the treated at 0 h, U1 is the absorbance of the untreated sample after 1h, and U0 is the absorbance of the untreated sample at 0 h.

[1] = tested on: NO production, RAW 264.7 cells; test: Nitric oxide (NO) assay (Griess reaction); format: cell-based, murine; conditions: for IC50: Mus musculus, RAW264.7, RAW 264.7, 1 μg/mL LPS, pure compound, ± SEM, read-out: Approximate NO IC50, +LPS, Comp.; for concentration at which NO production / inflammatory activity was reduced: non-toxic concentrations
Method: as §1
In the initial development of the assay, polymyxin inhibition of LPS inflammatory activity was checked. Polymyxin was established to inhibit LPS-induced inflammatory activity in macrophage cultures. Cell culture supernatants were removed after the overnight incubation with the relevant treatment. They were used to determine the amount of nitrite produced by the cells and used as an indication of NO production. The amount of NO produced was determined against a 0–100 μM nitrite standard range (Sigma-Aldrich). Culture supernatants or nitrite standard (50 μL) were mixed with 50 μL of Griess reagent (Sigma-Aldrich). The absorbance was subsequently read spectrophotometrically at 540 nm (Multiskan Ex, Thermo Electron Corporation, Vantaa, Finland), and the amount of NO produced by the cells was quantified. NO levels were not determined at cytotoxic concentrations.
The NO assay based on the Griess reaction was used to assess the production of NO from the RAW cells after the exposure to the NP extract/pure compounds in either the absence or presence of LPS.

RAW 264.7 cell = tested on: RAW 264.7 cell; design: method as in PMID 18295200, PMID 25871879; conditions: 0–1.6 μM or 0–200 μM, 24 h; cited from earlier work
B65 neuroblastomas = tested on: B65 neuroblastomas; design: method as in PMID 28970010; conditions: after 48 h; cited from earlier work
human liver cells, HepG2 = tested on: human liver cells, HepG2; design: method as in PMID 31956937; conditions: concentrations ≥ 120 μM, 24 hrs; cited from earlier work
PC12 cells = tested on: PC12 cells; design: method as in PMID 19789989; conditions: PC12 cells in the presence of neuronal growth factor, 3- and 5-day periods; cited from earlier work
[2] = Cell viability assay (WST-1); format: cell-based, murine; conditions: mouse, RAW 264.7 cells; −LPS, at concentrations ≥ 50 μg/mL; read-out: percentage of viable cells
Method: as §1, §2

[3] = RAW 264.7, absence of LPS (basal)
[4] = RAW264.7, RAW 264.7, 1 μg/mL LPS, pure compound/extract, overnight exposure, ± SEM, read-out: Approximate cell viability IC50, +LPS, Comp.
[5] = RAW264.7, RAW 264.7, unstimulated (−LPS), pure compound/extract, overnight exposure, ± SEM, read-out: Approximate cell viability IC50, −LPS, Comp.

liquiritin apioside [Comp. 5]
concentration at which cell viability was increased (mitogenic effect) (RAW 264.7 cells; RAW 264.7, presence of LPS): 25 µg/mL | Approximate cell viability IC50, −LPS, Comp. (RAW 264.7 cells; RAW 264.7, unstimulated (−LPS), pure compound/extract, overnight exposure, ± SEM): 47.8 ± 0.2 µg/mL | cell viability reduced to (RAW 264.7 cells; −LPS, 100 μg/mL): 40% | reduction of cell viability (RAW 264.7 cells; −LPS, at concentrations ≥ 50 μg/mL): 40%

O=C(/C=C/c1ccc(O)cc1)c1ccc(O[C@@H]2O[C@H](CO)[C@@H](O)[C@H](O)[C@H]2O)cc1O [Comp. 3, neoisoliquiritin]
effect on NO secretion (in words) [1, 3]: did not affect the level of NO | effect on NO secretion (in words) ([1]; RAW 264.7, presence of LPS): did not affect the level of NO

O=C(/C=C/c1ccc(O[C@@H]2O[C@H](CO)[C@@H](O)[C@H](O)[C@H]2O)cc1)c1ccc(O)cc1O [Comp. 2, isoliquiritin]
effect on RAW 264.7 cell viability (in words) (RAW 264.7 cell): not affected | concentration at which viability was reduced (B65 neuroblastomas): 100 µM | effect on NO secretion (in words) [1, 3]: did not affect the level of NO | concentration at which cell viability was significantly decreased (cytotoxic) (RAW 264.7 cells; [3]): 100 µg/mL | effect on cell viability (in words) (RAW 264.7 cells; RAW 264.7, presence of LPS): no cytotoxicity was exhibited | effect on cell viability (in words) (RAW 264.7 cells; RAW 264.7, presence of LPS, listed as Isoliquiritin (2)): no effect on viability | effect on cell viability (in words) (RAW 264.7 cells; RAW 264.7, presence of LPS, listed as isoliquiritin (2)): did not hinder cell proliferation

O=C1C[C@@H](c2ccc(O[C@@H]3O[C@H](CO)[C@@H](O)[C@H](O)[C@H]3O)cc2)Oc2cc(O)ccc21 [Comp. 1, liquiritin]
HepG2 viability (human liver cells, HepG2): below 40% | IC50 [1]: ~16.5 µg/mL (≈ 39.4 µM) | effect on NO secretion (in words) [1, 3]: did not elicit NO secretion | effect on NO secretion (in words) ([1]; RAW 264.7, presence of LPS): inhibited NO secretion | concentration at which NO production / inflammatory activity was reduced ([1]; RAW 264.7, presence of LPS, listed as Compound 1): 25 µg/mL | concentration at which NO production / inflammatory activity was reduced ([1]; RAW 264.7, presence of LPS, listed as liquiritin): ≥ 25 µg/mL | concentration at which cell viability decreased (PC12 cells): ≥ 50 µg/mL | IC50 (RAW 264.7 cells; [4]): ~60.5 µg/mL (≈ 145 µM) | IC50 (RAW 264.7 cells; [5]): ~39.7 µg/mL (≈ 94.9 µM) | concentration at which cell viability was significantly decreased (cytotoxic) (RAW 264.7 cells; [3]): 50 to 100 µg/mL | concentration at which cell viability was significantly decreased (cytotoxic) (RAW 264.7 cells; RAW 264.7, absence of LPS (basal), listed as liquiritin (1)): ≥ 50 µg/mL | concentration at which cell viability was significantly decreased (cytotoxic) (RAW 264.7 cells; RAW 264.7, presence of LPS): 50 to 100 µg/mL

isoliquiritin apioside [Comp. 4]
effect on NO secretion (in words) [1, 3]: did not elicit an inflammatory response | effect on NO secretion (in words) ([1]; RAW 264.7, presence of LPS): did not impact NO secretion | cell viability reduced to (RAW 264.7 cells; +LPS, 25 μg/mL): 60% | cell viability reduced to (RAW 264.7 cells; +LPS, 50 μg/mL): 70%

CC1(C)C=Cc2c(ccc3c2OC[C@@H](c2ccc(O)cc2O)C3)O1 [Comp. 6, glabridin]
IC50 [1]: ~27.5 µg/mL (≈ 84.8 µM) | effect on NO secretion (in words) [1, 3]: did not affect NO production | effect on NO secretion (in words) ([1]; RAW 264.7, presence of LPS): inhibited NO secretion | concentration at which NO production / inflammatory activity was reduced ([1]; RAW 264.7, presence of LPS): ≥ 12.5 µg/mL | percentage viability (RAW 264.7 cells; +LPS, at concentrations ≥ 25 μg/mL): 65 to 9% | IC50 (RAW 264.7 cells; [4]): ~27.2 µg/mL (≈ 83.9 µM) | IC50 (RAW 264.7 cells; [5]): ~28.4 µg/mL (≈ 87.6 µM) | concentration at which toxicity was seen (RAW 264.7 cells; RAW 264.7, LPS status not stated): > 25 µg/mL | concentration at which cell viability was significantly decreased (cytotoxic) (RAW 264.7 cells; [3]): ≥ 50 µg/mL | concentration at which cell viability was significantly decreased (cytotoxic) (RAW 264.7 cells; RAW 264.7, presence of LPS): ≥ 25 µg/mL | viability [2]: ≤ 30%
